Measured values reported in patent publication US20030114512A1, “Compounds with 5-ht2 and 5-ht1a agonist activity for treating glaucoma” (priority 2002, published 2003).
Where two headings read alike, the source gives them in different places.

What was measured:
5-HT2 receptor = target: T1, 5-HT2 receptor (Rattus norvegicus, UniProt P14842); test: 5-HT2 functional assay: phosphoinositide (PI) turnover; format: cell-based; settings: for Emax: A7r5 cells, relative to 5-HT set at 100%, read-out: Efficacy (Emax, %) 5-HT2 functional; for EC50: [3H]inositol phosphates, A7r5 rat vascular smooth muscle cells, read-out: EC50, nM (SEM) 5-HT2 functional
T1 construct: A7r5 rat vascular smooth muscle cells; endogenous in cells; host or cells: A7r5 rat vascular smooth muscle cells
Experimental: 5-HT2 Functional Assay: Phosphoinositide (PI) Turnover Assay
The relative agonist activity of serotonergic compounds at the 5-HT2 receptor can be determined in vitro using the ability of the compounds to stimulate the production of [^3H]inositol phosphates in [^3H]myo-inositol-labeled A7r5 rat vascular smooth muscle cells by their ability to activate the enzyme phospholipase C. These cells are grown in culture plates, maintained in a humidified atmosphere of 5% CO2 and 95% air and fed semi-weekly with Dulbecco's modified Eagle medium (DMEM) containing 4.5 g/l glucose and supplemented with 2 mM glutamine, 10 μg/ml gentamicin, and 10% fetal bovine serum. For the purpose of conducting the phosphoinositide (PI) turnover experiments, the A7r5 cells are cultured in 24-well plates as previously [J. Pharmacol. Expt. Ther., 286, 411 (1998)]. Confluent cells are exposed for 24-30 hrs to 1.5 μCi [^3H]-myo-inositol (18.3 Ci/mmol) in 0.5 ml of serum-free medium. Cells are then rinsed once with DMEM/F-12 containing 10 mM LiCl prior to incubation with the test agent (or solvent as the control) in 1.0 ml of the same medium for 1 hr at 37° C., after which the medium is aspirated and 1 ml of cold 0.1 M formic acid added to stop the reaction. The chromatographic separation of [^3H]-inositol phosphates ([^3H]-IPs) on an AG-1-X8 column is performed as previously described [J. Pharmacol. Expt. Ther. 286, 411 (1998)] with sequential washes with H2O and 50 mM ammonium formate, followed by elution of the total [^3H]-IPs fraction with 1.2 M ammonium formate containing 0.1 M formic acid. The eluate (4 ml) is collected, mixed with 15 ml scintillation fluid, and the total [^3H]-IPs determined by scintillation counting on a beta counter. Concentration-response data are analyzed by the sigmoidal fit function of the Origin Scientific Graphics software (Microcal Software, Northampton, Mass.) to determine agonist potency (EC50 value) and efficacy (Emax). Serotonin (5-HT) is used as a positive control (standard) agonist compound and the efficacy of test compounds is compared to that of 5-HT (set at 100%). The concentration of the compound needed to stimulate the production of [^3H]-IPs by 50% of the maximum response is termed the EC50 value.

intraocular pressure [1] = test: IOP response in lasered (hypertensive) eyes of conscious cynomolgus monkeys; format: in vivo, cynomolgus monkey; settings: 300 μg topical ocular
Experimental: IOP Response in Lasered (Hypertensive) Eyes of Conscious Cynomolgus Monkeys
Intraocular pressure (IOP) was determined with an Alcon Pneumatonometer after light corneal anesthesia with 0.1% proparacaine. Eyes were washed with saline after each measurement. After a baseline IOP measurement, test compound was instilled in one 30 μL aliquot to the right eyes only of nine cynomolgus monkeys. Vehicle was instilled in the right eyes of six additional animals. Subsequent IOP measurements were taken at 1, 3, and 6 hours.

[2] = target: T2, human cloned 5-HT1A receptors (Homo sapiens, UniProt P08908); test: 5-HT1A receptor binding assay ([3H]8-OH-DPAT); settings: [3H]8-OH-DPAT, CHO cell membranes; read-out: IC50, nM (SEM) 5-HT1A receptor binding
T2 construct: purchased NEN (manufactured by Biosignal, Inc., Montreal, Canada); host or cells: CHO cells (membranes)
T2 sequence (P08908 1-422): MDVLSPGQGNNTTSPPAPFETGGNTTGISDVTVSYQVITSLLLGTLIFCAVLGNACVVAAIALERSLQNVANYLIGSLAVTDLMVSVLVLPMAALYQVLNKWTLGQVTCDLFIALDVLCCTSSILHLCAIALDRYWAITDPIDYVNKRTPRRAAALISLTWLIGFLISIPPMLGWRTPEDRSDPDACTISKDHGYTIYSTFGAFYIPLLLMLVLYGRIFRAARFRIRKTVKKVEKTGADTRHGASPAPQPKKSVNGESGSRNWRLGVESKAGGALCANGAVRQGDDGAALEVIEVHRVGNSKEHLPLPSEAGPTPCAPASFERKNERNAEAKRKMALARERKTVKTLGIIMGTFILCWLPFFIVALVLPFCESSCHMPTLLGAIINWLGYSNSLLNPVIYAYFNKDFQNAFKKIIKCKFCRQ
Experimental: 5-HT1A Receptor Binding Assay
5-HT1A binding studies were performed with human cloned receptors expressed in Chinese hamster ovary (CHO) cells using (^3H)8-OH DPAT as the ligand. Membranes from Chinese hamster ovary cells (CHO) expressing cloned 5-HT1A receptors (manufactured for NEN by Biosignal, Inc., Montreal, Canada) were homogenized in approximately 40 volumes of 50 mM Tris pH 7.4 for 5 sec. Drug dilutions were made using a Beckman Biomek 2000 robot (Beckman Instruments, Fullerton, Calif.). Incubations were conducted with membrane prep, test compounds, and 0.25 nM [^3H]8-OH-DPAT (NEN, Boston, Mass.) in the same buffer at 27° C. for 1 h. Assays were terminated by rapid vacuum filtration over Whatman GF/B glass fiber filters pre-soaked in 0.3% polyethyleneimine. Bound radioactivity was measured using liquid scintillation spectrometry. Data were analyzed using non-linear curve fitting programs (Sharif et al., J. Pharmac. Pharmacol. 51: 685-694, 1999).
Ligand binding studies can also be run using membrane preparations from calf and rat brain (local source) and human cortex membranes. Specific brain regions were dissected out, homogenized in 10 volumes of 0.32 M sucrose and centrifuged for 10 min at 700×g. The resulting supernatant was centrifuged at 43,500×g for 10 min and the pellet re-suspended in 50 mM Tris-HCl (pH 7.7, 25° C.) using a 10 sec polytron treatment. Aliquots were stored at −140° C. To remove endogenous serotonin, the preps were incubated at 37° C. for 10 min prior to the experiment. Assay incubations were terminated by rapid filtration over Whatman GF/C filters using a Brandel cell harvester. Ki values were calculated using the Cheng-Prusoff equation (De Vry et al., J. Pharm. Exper. Ther. 284:1082-1094, 1998.)

intraocular pressure [3] = settings: monkey; ascribed to α1A receptor activity; cited from earlier work
intraocular pressure [4] = settings: rabbits; cited from earlier work

T1 sequence (P14842 whole entry): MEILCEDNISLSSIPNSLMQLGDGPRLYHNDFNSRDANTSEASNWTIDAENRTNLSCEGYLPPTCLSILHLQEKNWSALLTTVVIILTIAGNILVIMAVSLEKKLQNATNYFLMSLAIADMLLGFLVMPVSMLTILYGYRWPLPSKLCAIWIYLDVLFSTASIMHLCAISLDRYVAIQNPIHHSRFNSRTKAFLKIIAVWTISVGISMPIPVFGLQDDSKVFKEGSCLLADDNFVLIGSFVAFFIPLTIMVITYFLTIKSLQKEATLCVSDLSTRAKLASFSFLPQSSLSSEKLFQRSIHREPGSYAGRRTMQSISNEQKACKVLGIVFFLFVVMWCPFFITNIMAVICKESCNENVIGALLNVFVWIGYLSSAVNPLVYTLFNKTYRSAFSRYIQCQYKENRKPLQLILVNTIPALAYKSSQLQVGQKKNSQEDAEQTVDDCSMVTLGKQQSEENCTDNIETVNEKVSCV

| Structure (SMILES) | Emax (5-HT2 receptor) [%] | EC50 (5-HT2 receptor) [nM] | Percent IOP Reduction (intraocular pressure [1]; 1 hour after dose) [%] | Percent IOP Reduction (intraocular pressure [1]; 3 hours after dose) [%] | Percent IOP Reduction (intraocular pressure [1]; 6 hours after dose) [%] | IC50 [2] [nM] | Effect on IOP (intraocular pressure [3]) | Effect on IOP (intraocular pressure [4]) |
| --- | --- | --- | --- | --- | --- | --- | --- | --- |
| CC(N)Cn1ccc2cc(Cl)ccc21.O=C(O)/C=C/C(=O)O (centres unmarked) [1-(2-aminopropyl) 5-chloroindole fumarate] | 104 | 1390 | 1.2 | 16 | 20.1 | 417 | – | – |
| COc1ccccc1N1CCN(CCCNc2c(C)c(=O)n(C)c(=O)n2C)CC1 [5-methylurapidil] | – | – | – | – | – | – | lowers IOP | – |
| CCCN(CCC)C1CCc2cccc(O)c2C1 (centres unmarked) [Compound 8-OH-DPAT, 8-hydroxydipropylaminotetralin] | – | – | – | – | – | – | – | reduces IOP |
| COc1ccc2ccn(CC(C)N)c2c1.O=C(O)/C=C/C(=O)O (centres unmarked) [1-(2-aminopropyl) 6-methoxyindole fumarate] | 88 | 255 | 22.5 | 33.1 | 27.5 | 225 | – | – |
